The nature of series [1]: Selectivity index, ratio of CC50 for human HuH7 cells to EC50 for HCV 1b. On the set-up: species or system Huh-7.
A further series deals with Hepatitis C virus. The series can be described thus: Antiviral activity against HCV 1b infected in human HuH7 cells assessed as inhibition of viral sub-genomic replication by EG(delta-4AB)SEAP reporter protein assay. It counts as functional, organism-based, Hepacivirus hominis. Conditions: genotype 1b, Huh-7.
A short description of series [2]: Cytotoxicity against human HuH7 cells. In kind it is cell-based, Huh-7.

Where only a bound is given, the exact number is not on record here.

For the compound `CC(C)(C)c1ccc(C(=O)NC(=S)N2CCc3c(OCCCCCOc4ccc(Cl)cc4)cccc32)cc1`, the “Ratio CC50/EC50” value in series [1] is more than 26. Moreover, the half-maximal effective concentration (EC50) in the series with Hepatitis C virus came to 1.95 µM. The compound also registered a cytotoxic concentration (CC50) in series [2] of more than 50 µM.

On to `S=C(NC(=S)N1CCc2c(OCCCCCOc3ccc(Cl)cc3)cccc21)Oc1ccccc1`, for which the “Ratio CC50/EC50” value in series [1] is given as more than 1. Further, in the series on Hepatitis C virus, the EC50 was more than 50 µM. The same compound registered a CC50 in series [2] of more than 50 µM.

As to `O=C(NC(=S)N1CCc2c(OCCCCCOc3ccc(Cl)cc3)cccc21)c1ccc(Cl)cc1`, the “Ratio CC50/EC50” value in series [1] stood at 31. For the same compound, the EC50 in the series with Hepatitis C virus was found to be 0.69 µM. Besides, the midpoint of cytotoxicity in series [2], the CC50, lay at 21.7 µM.

Take `O=C(NC(=S)N1CCc2cccc(OCc3ccccc3)c21)c1ccccc1`: in series [1], the “Ratio CC50/EC50” value is more than 1. The EC50 in the series on Hepatitis C virus is more than 50 µM. This compound also showed a CC50 in series [2] of more than 50 µM.

With `Cc1ccc(C(=O)NC(=S)N2CCc3c(OCCCCCOc4ccc(Cl)cc4)cccc32)cc1`, the “Ratio CC50/EC50” value in series [1] is more than 26. For the same compound, the concentration for a half-maximal effect (EC50) in the series with Hepatitis C virus was 1.94 µM. Besides, the CC50 in series [2] was more than 50 µM.

`O=C(NC(=S)N1CCc2c(OCc3ccccc3)cccc21)c1ccccc1`: in series [1], the “Ratio CC50/EC50” value is reported as more than 16. For the same compound, the EC50 in the series on Hepatitis C virus was determined as 3.18 µM. This compound showed a 50% cytotoxic concentration (CC50) in series [2] of more than 50 µM.

As for `O=C(NC(=S)N1CCc2c(OCCCCCOc3ccc(Cl)cc3)cccc21)c1cccnc1`, the “Ratio CC50/EC50” value in series [1] turned out to be 5. Further, the 50% effective concentration (EC50) in the series with Hepatitis C virus came to 2.37 µM. The same compound had a 50% cytotoxic concentration (CC50) in series [2] of 11.1 µM.

`O=C(NC(=S)N1CCc2c(OCCCCCOc3ccc(Cl)cc3)cccc21)C1CCCCC1`: in series [1], the “Ratio CC50/EC50” value was more than 1. In addition, the EC50 with Hepatitis C virus amounted to 42.5 µM. Also, in series [2], the cytotoxic concentration (CC50) was more than 50 µM.

Take `O=C(NC(=S)N1CCc2c(OCCCCCOc3ccc(Cl)cc3)cccc21)C1CCCC1`: the “Ratio CC50/EC50” value in series [1] is reported as more than 2. Also, in the series on Hepatitis C virus, the 50% effective concentration (EC50) turned out to be 25.4 µM. Besides, the CC50 in series [2] is more than 50 µM.

On to `O=C(NC(=S)n1ccc2c(OCCCCCOc3ccc(Cl)cc3)cccc21)c1ccccc1`, for which, in series [1], the “Ratio CC50/EC50” value is listed as 7. Moreover, the EC50 in the series with Hepatitis C virus amounted to 4.06 µM. The compound further had a CC50 in series [2] of 29.5 µM.

On to `N#Cc1ccc(C(=O)NC(=S)N2CCc3c(OCCCCCOc4ccc(Cl)cc4)cccc32)cc1`, for which the “Ratio CC50/EC50” value in series [1] is more than 98. Further, the EC50 in the series on Hepatitis C virus was 0.51 µM. Also, the CC50 in series [2] was more than 50 µM.

For the compound `O=C(NC(=S)N1CCc2ccc(OCc3ccccc3)cc21)c1ccccc1`, in series [1], the “Ratio CC50/EC50” value is recorded as 9. The EC50 with Hepatitis C virus came to 5.05 µM. The compound further registered a CC50 in series [2] of 43.8 µM.

`O=C(NC(=S)N1CCc2c(OCCCCCOc3ccc(Cl)cc3)cccc21)c1ccc(F)cc1`: the “Ratio CC50/EC50” value in series [1] was 33. In the series on Hepatitis C virus, the EC50 was 0.95 µM. Half-maximal cytotoxicity in series [2] (CC50) was put at 31.1 µM.

Regarding `O=C(NC(=S)N1CCc2c(OCCCCCOc3ccc(Cl)cc3)cccc21)c1cc2ccccc2s1`, the “Ratio CC50/EC50” value in series [1] is recorded as more than 45. Further, the EC50 in the series on Hepatitis C virus is 1.1 µM. In series [2], this compound showed a CC50 of more than 50 µM.

On to `O=C(NC(=S)N1CCc2cc(OCc3ccccc3)ccc21)c1ccccc1`, for which, in series [1], the “Ratio CC50/EC50” value was found to be 9. For the same compound, the EC50 in the series with Hepatitis C virus turned out to be 4.81 µM. For the same compound, the midpoint of cytotoxicity in series [2], the CC50, lay at 45.2 µM.

As for `O=C(NC(=S)N1CCc2c(OCCCCCOc3ccc(Cl)cc3)cccc21)c1ccno1`, in series [1], the “Ratio CC50/EC50” value turned out to be 18. In addition, the concentration for a half-maximal effect (EC50) in the series on Hepatitis C virus amounted to 2.06 µM. In series [2], this compound returned a CC50 of 37.1 µM.

For `O=C(NC(=S)N1CCc2c(OCCCCCOc3ccc(Cl)cc3)cccc21)c1cccc([N+](=O)[O-])c1`, the “Ratio CC50/EC50” value in series [1] is on record as 21. For the same compound, the EC50 in the series with Hepatitis C virus worked out at 0.58 µM. In addition, the 50% cytotoxic concentration (CC50) in series [2] was found to be 12.1 µM.

In the case of `O=C(NC(=S)N1CCc2c(OCCCCCOc3ccc(Cl)cc3)cccc21)c1ccc(C(F)(F)F)cc1`, the “Ratio CC50/EC50” value in series [1] is given as 27. Moreover, the EC50 in the series with Hepatitis C virus was 1.23 µM. In addition, the CC50 in series [2] stood at 32.7 µM.

`O=C(NC(=S)N1CCc2c(OCCCCCOc3ccc(Cl)cc3)cccc21)Oc1ccccc1`: the “Ratio CC50/EC50” value in series [1] is more than 1. The concentration for a half-maximal effect (EC50) in the series with Hepatitis C virus is more than 50 µM. Also, in series [2], the CC50 was more than 50 µM.

On to `O=C(NC(=S)N1CCc2c(OCCCCCOc3ccc(Cl)cc3)cccc21)c1cccs1`, for which, in series [1], the “Ratio CC50/EC50” value is 16. Also, the 50% effective concentration (EC50) in the series on Hepatitis C virus amounted to 0.66 µM. This compound also showed a cytotoxic concentration (CC50) in series [2] of 10.7 µM.

Regarding `CCCC(=O)NC(=S)N1CCc2c(OCCCCCOc3ccc(Cl)cc3)cccc21`, the “Ratio CC50/EC50” value in series [1] is listed as 2. The EC50 with Hepatitis C virus came to 31.6 µM. The CC50 in series [2] was more than 50 µM.

As to `NC(=S)Nc1cccc(Oc2ccccc2)c1`, in the series on Hepatitis C virus, the EC50 came to 0.49 µM.

As for `NC(=S)N1CCc2c(OCCCCCOc3ccc(Cl)cc3)cccc21`, the “Ratio CC50/EC50” value in series [1] is listed as more than 11. The concentration giving a half-maximal response (EC50) with Hepatitis C virus came out at 4.71 µM. The compound further came in with a CC50 in series [2] of more than 50 µM.

In the case of `O=C(NC(=S)N1CCc2c(OCCCCCOc3ccc(Cl)cc3)cccc21)c1ccccc1`, in series [1], the Ratio CC50/EC50 is more than 63. For the same compound, in the series with Hepatitis C virus, the EC50 stood at 0.79 µM. The CC50 in series [2] was more than 50 µM.

On to `N#Cc1cccc(C(=O)NC(=S)N2CCc3c(OCCCCCOc4ccc(Cl)cc4)cccc32)c1`, for which the “Ratio CC50/EC50” value in series [1] came to 17. Besides, the EC50 in the series on Hepatitis C virus was 0.57 µM. The CC50 in series [2] was 9.75 µM.

Regarding `O=C(NC(=S)N1CCc2c(OCCCCCOc3ccc(Cl)cc3)cccc21)c1ccoc1`, the “Ratio CC50/EC50” value in series [1] came to 12. In addition, the EC50 in the series on Hepatitis C virus came out at 1.72 µM. This compound also had a CC50 in series [2] of 20.1 µM.

In the case of `COc1ccc(C(=O)NC(=S)N2CCc3c(OCCCCCOc4ccc(Cl)cc4)cccc32)cc1`, the “Ratio CC50/EC50” value in series [1] is given as 17. Also, the 50% effective concentration (EC50) with Hepatitis C virus was found to be 2.02 µM. This compound yielded a 50% cytotoxic concentration (CC50) in series [2] of 34.4 µM.

Take `CN(C)c1ccc(C(=O)NC(=S)N2CCc3c(OCCCCCOc4ccc(Cl)cc4)cccc32)cc1`: in series [1], the “Ratio CC50/EC50” value was more than 1. Further, the EC50 in the series on Hepatitis C virus worked out at 42.4 µM. In addition, the CC50 in series [2] was more than 50 µM.

On to `O=C(NC(=S)N1CCc2c(OCCCCCOc3ccc(Cl)cc3)cccc21)c1ccco1`, for which the “Ratio CC50/EC50” value in series [1] stood at 8. Further, in the series with Hepatitis C virus, the 50% effective concentration (EC50) came to 0.58 µM. In series [2], this compound gave a cytotoxic concentration (CC50) of 4.62 µM.

For `O=C(NC(=S)N1CCc2c(OCCCCCOc3ccc(Cl)cc3)cccc21)c1ccccc1[N+](=O)[O-]`, in series [1], the “Ratio CC50/EC50” value is more than 30. In the series on Hepatitis C virus, the EC50 worked out at 1.65 µM. In series [2], this compound gave a CC50 of more than 50 µM.

Take `O=S(=O)(NC(=S)N1CCc2c(OCCCCCOc3ccc(Cl)cc3)cccc21)c1ccccc1`: the “Ratio CC50/EC50” value in series [1] is reported as more than 1. For the same compound, the half-maximal effective concentration (EC50) with Hepatitis C virus was more than 50 µM. The same compound came in with a CC50 in series [2] of more than 50 µM.

For `O=C(NC(=S)N1CCc2c(OCCCCCOc3ccc(Cl)cc3)cccc21)c1ccc([N+](=O)[O-])cc1`, in series [1], the “Ratio CC50/EC50” value was determined as 19. Moreover, in the series on Hepatitis C virus, the EC50 came out at 0.72 µM. This compound gave a CC50 in series [2] of 13.6 µM.

Take `O=C(NC(=S)N1CCc2c(OCCCCCOc3ccc(Cl)cc3)cccc21)c1ccc2ccccc2c1`: in series [1], the “Ratio CC50/EC50” value is on record as more than 23. Further, in the series on Hepatitis C virus, the EC50 is 2.16 µM. The CC50 in series [2] was more than 50 µM.

For `O=C(CCc1ccccc1)NC(=S)N1CCc2c(OCCCCCOc3ccc(Cl)cc3)cccc21`, the “Ratio CC50/EC50” value in series [1] is recorded as more than 4. The concentration for a half-maximal effect (EC50) in the series on Hepatitis C virus worked out at 13.4 µM. Moreover, the 50% cytotoxic concentration (CC50) in series [2] was more than 50 µM.

As for `NC(=S)N1CCCc2c(OCCCCCOc3cccc4ccccc34)cccc21`, the “Ratio CC50/EC50” value in series [1] was more than 1. Further, in the series on Hepatitis C virus, the EC50 was more than 50 µM. In series [2], this compound yielded a CC50 of more than 50 µM.

As to `NC(=S)n1ccc2c(OCCCCCOc3ccc(Cl)cc3)cccc21`, in series [1], the “Ratio CC50/EC50” value is 1. Besides, in the series with Hepatitis C virus, the half-maximal effective concentration (EC50) stood at 24.5 µM. The CC50 in series [2] turned out to be 24.7 µM.

As for `O=C(NC(=S)N1CCc2c(OCCCCCOc3ccc(Cl)cc3)cccc21)c1ccc(Br)cc1`, the “Ratio CC50/EC50” value in series [1] turned out to be 33. The half-maximal effective concentration (EC50) with Hepatitis C virus came out at 0.88 µM. In series [2], half-maximal cytotoxicity (CC50) was put at 29.1 µM.

In the case of `O=C(NC(=S)N1CCc2c(OCCCCCOc3ccc(Cl)cc3)cccc21)c1ccsc1`, in series [1], the “Ratio CC50/EC50” value was more than 49. Also, the concentration for a half-maximal effect (EC50) in the series with Hepatitis C virus was determined as 1.02 µM. The compound further gave a CC50 in series [2] of more than 50 µM.

Source of the values: ChEMBL document CHEMBL1152383, “Design and synthesis of indole, 2,3-dihydro-indole, and 3,4-dihydro-2H-quinoline-1-carbothioic acid amide derivatives as novel HCV inhibitors” (Bioorg Med Chem Lett, 2009).
